Source: paper PMC5571359, “Screening the Medicines for Malaria Venture Pathogen Box across Multiple Pathogens Reclassifies Starting Points for Open-Source Drug Discovery” (Antimicrobial Agents and Chemotherapy, 2017)
Where two headings read alike, the source gives them in different places.

Experiments:
[1] = tested on: T. cruzi C4 β-galactosidase reporter parasite in MRC 5SV2 host cells; conditions: ref Pbox supporting information; read-out: T. cruzi Pbox IC50; cited from earlier work
T. brucei rhodesiense = conditions: ref Pbox supporting information; read-out: T .b. rohdensie Pbox IC50; cited from earlier work
[2] = tested on: L. infanium (macrophages); set-up: method as in Pbox supporting information; conditions: ref Pbox supporting information; cited from earlier work
T. brucei brucei = conditions: ref Pbox supporting information; read-out: T.b. brucei Pbox IC50; cited from earlier work
HEK293 cells = assay: HEK293 resazurin cell cytotoxicity assay; conditions: Homo sapiens
HepG2 = conditions: cited from earlier work
liver stage = conditions: cited from earlier work
P. falciparum ABS = conditions: cited from earlier work; for EC50: ChEMBL Data, read-out: TCMDC (ref 93) EX50; for IC50: read-out: Pf 3D7 Pbox IC50
[3] = tested on: T. b. brucei 427 bloodstream trypanosomes; assay: T. b. brucei resazurin viability assay; assay type: cell-based, Trypanosoma brucei brucei
[4] = HEK293, read-out: HEK % Inhibition 20uM/IC50 Discovery Biology
[5] = HEK293, read-out: HEK % Inhibition 20uM/IC50 Discovery Biology (IA)
[6] = read-out: HepG2 PBox CC50 µM, ref PBox supporting information
[7] = ref Pbox supporting information
[8] = P. falciparum 3D7, ref PBox supporting information
[9] = Trypanosoma brucei; read-out: T b.brucei Discovery Biology IC50
[10] = ref PBox supporting information

CN1CCCN(C(c2ccccc2)c2ccc(Cl)cc2)CC1 (stereo not drawn) [MMV004168]
IC50 [1]: 9.44 µM
IC50 (T. brucei rhodesiense): 1.94 µM
IC50 [2]: 36.3 µM
IC50 (T. brucei brucei): 4.64 µM

Cc1ccc(S(=O)(=O)n2cc(-c3ccnc(N)c3)c3cc(Br)cnc32)cc1 [MMV024114]
inhibition at 20 µM (HEK293 cells; [4]): 60%
CC50 (HepG2; read-out: HepG2 PBox CC50 µM, HepG2 CC50, ref Pathogen Box supporting information): > 6 µM
IC50 (liver stage; liver stage, ref Pathogen Box supporting information, read-out: LIVER STAGE Pbox IC50): > 6 µM
EC50 (P. falciparum ABS; TCMDC): 0.9 µM
IC50 (P. falciparum ABS; Pf 3D7, ref Pathogen Box supporting information): 0.63 µM

OCCc1ccc(Nc2nccc(-c3nnc4ccccn34)n2)cc1 [MMV028694]
IC50 ([3]; Trypanosoma brucei; PBox compounds; read-out: IC50 T. brucei brucei (Discovery Biology)): 2.39 µM
IC50 (HEK293 cells; [5]): > 20 µM
CC50 (HepG2; [6]): 8.1 µM
IC50 (liver stage; [7]): 1.47 µM
EC50 (P. falciparum ABS; P. falciparum): 0.9 µM
IC50 (P. falciparum ABS; [8]): 1.08 µM

CNC(=O)C1Cc2c([nH]c3cc(Cl)ccc23)C2(CCN(CCc3ccccc3)CC2)N1 (stereo not drawn) [MMV031011]
IC50 (HEK293 cells; [5]): > 20 µM
CC50 (HepG2; [6]): > 10 µM
IC50 (liver stage; [7]): 4.51 µM
EC50 (P. falciparum ABS; P. falciparum): 0.93 µM
IC50 (P. falciparum ABS; [8]): 0.86 µM

Cc1nn2c(O)c3c(nc2c1-c1ccc(F)cc1)CCCC3 [MMV099637]
IC50 [3, 9]: 4.43 µM
IC50 (HEK293 cells; [4]): > 20 µM
IC50 [1]: 2.21 µM
IC50 (T. brucei rhodesiense): 0.48 µM
IC50 [2]: 50.4 µM
IC50 (T. brucei brucei): 1.94 µM

CNC(=O)C1Cc2ccccc2N1C(=O)Cc1ccc(F)cc1 (stereo not drawn) [MMV188296]
IC50 [3, 9]: 1.47 µM
IC50 (HEK293 cells; [4]): > 20 µM
IC50 [1]: > 64 µM
IC50 (T. brucei rhodesiense): 0.38 µM
IC50 [2]: > 64 µM
IC50 (T. brucei brucei): 0.49 µM

Clc1cccc(C(c2ccc(CN3CCNCC3)cc2)n2ccnc2)c1 (stereo not drawn) [MMV663250]
IC50 (HEK293 cells; [5]): > 20 µM
CC50 (HepG2; [6]): > 10 µM
IC50 (liver stage; [7]): > 10 µM
IC50 (P. falciparum ABS; [8]): 1.63 µM

Cc1cnc(CCNC(=O)c2cc(-c3ccc(Cl)cc3)cs2)[nH]1 [MMV676350]
CC50 (HepG2; [6]): > 10 µM
IC50 (liver stage; [7]): 8.58 µM
EC50 (P. falciparum ABS; P. falciparum): 0.24 µM
IC50 (P. falciparum ABS; [8]): 0.81 µM

Cc1cccc(NC(=O)c2cc(S(=O)(=O)N(C)c3ccc(F)cc3)ccc2Cl)n1 [MMV676528]
CC50 (HepG2; [6]): > 10 µM
IC50 (liver stage; [7]): 6.77 µM
IC50 (P. falciparum ABS; [8]): 1.58 µM

C[C@]1(O)C[C@@H](c2nc(-c3ccc4ccc(-c5ccccc5)nc4c3)c3c(N)nccn32)C1 [MMV676605]
CC50 (HepG2): > 10 µM
IC50 (liver stage; [7]): 0.36 µM
IC50 (P. falciparum ABS; [8]): > 2 µM

c1ccc(Oc2ccc(-c3cc(C4CCOCC4)[nH]n3)cc2)cc1 [MMV687762]
IC50 [3, 9]: 1.79 µM
HepG2 PBox CC20 (HepG2; [10]): 10.8 µM
IC50 [1]: 16.4 µM
IC50 (T. brucei rhodesiense): 3.77 µM
IC50 [2]: > 32 µM
IC50 (T. brucei brucei): 7.58 µM

c1cc(C2=NCCN2)cc(-c2cc(-c3ccc(C4=NCCN4)cc3)no2)c1 [MMV688361]
HepG2 PBox CC20 (HepG2; [10]): 4.5 µM
IC50 [1]: > 32 µM
IC50 (T. brucei rhodesiense): 3 µM
IC50 [2]: > 32 µM
IC50 (T. brucei brucei): 5.63 µM

COc1cc(C2=NCCN2)ccc1-c1cn(-c2cccc(C3=NCCN3)c2)nn1 [MMV688407]
HepG2 PBox CC20 (HepG2; [10]): 22.9 µM
IC50 [1]: 25 µM
IC50 (T. brucei rhodesiense): 3.72 µM
IC50 [2]: > 32 µM
IC50 (T. brucei brucei): > 32 µM

CC1=Nc2ccc(Cl)cc2C(c2ccccc2)N1CCNC(=O)CN(C)C (stereo not drawn) [MMV688410]
HepG2 PBox CC20 (HepG2; [10]): 16.4 µM
IC50 [1]: 17.1 µM
IC50 (T. brucei rhodesiense): 3.11 µM
IC50 [2]: 10.1 µM
IC50 (T. brucei brucei): 3.78 µM

COc1cc(C2=NCCN2)ccc1-n1cc(-c2cccc(C3=NCCN3)c2)nn1 [MMV688474]
HepG2 PBox CC20 (HepG2; [10]): >80 µM
IC50 [1]: > 32 µM
IC50 (T. brucei rhodesiense): 3.81 µM
IC50 [2]: > 32 µM
IC50 (T. brucei brucei): > 32 µM

Clc1ccc(CN2CCN(C3=NCCN3)CC2)cc1Cl [MMV689060]
IC50 [1]: 6.57 µM
IC50 (T. brucei rhodesiense): 30.1 µM
IC50 [2]: > 64 µM
IC50 (T. brucei brucei): 31.6 µM

CC(=O)Nc1ccc(-c2noc(CC3CCCN(Cc4cccc(F)c4C)C3)n2)cc1 (stereo not drawn) [MMV689061]
IC50 [1]: 2.8 µM
IC50 (T. brucei rhodesiense): 25.1 µM
IC50 [2]: 1.59 µM
IC50 (T. brucei brucei): 32.3 µM

COc1ccc(C2=NN(C3CCCCCC3)C(=O)[C@@H]3CC=CC[C@H]23)cc1OCCCCOc1ccc(-c2nn[nH]n2)cc1 [MMV690027]
IC50 ([3]; Trypanosoma brucei, read-out: T b.brucei Discovery Biology IC50): 0.5 µM
IC50 (HEK293 cells; [4]): > 20 µM
IC50 (T. brucei brucei): 0.02 µM

COc1ccc(C2=NN(C3CCCCCC3)C(=O)C2(C)C)cc1OCCCCOc1ccc(-c2nn[nH]n2)cc1 [MMV690028]
IC50 [3, 9]: 2.25 µM
IC50 (HEK293 cells; [4]): > 20 µM
IC50 (T. brucei brucei): 0.79 µM

CCOC(=O)c1noc(N)c1-c1ccccc1 [MMV1236379]
IC50 [1]: > 64 µM
IC50 (T. brucei rhodesiense): 0.46 µM
IC50 [2]: > 64 µM
IC50 (T. brucei brucei): 1.22 µM
